Source: publication PMC7824897, “Selection of the First ^99mTc-Labelled Somatostatin Receptor Subtype 2 Antagonist for Clinical Translation—Preclinical Assessment of Two Optimized Candidates” (Pharmaceuticals, 2020)

Legend:
[1] = assay type: physicochemical; details: pH 7.4
Method: Determination of the distribution coefficient (log D) was performed by the shake-flask method in 1:1 mixture of octanol/Phosphate buffered saline (PBS). Then, 50 µL of [^99mTc]Tc-TECANT-1 or [^99mTc]Tc-TECANT-2 solution was diluted up to 500 µL with PBS (pH 7.4; 8 mM phosphate). Next, 20 µL of this solution was added to six eppendorf tubes, each containing 500 µL octanol and 480 µL PBS. The samples were vortexed for 15 min at 1400 rpm followed by centrifugation for 2 min at 4500 rpm. Aliquots of 100 µL from each phase were taken and measured in a γ-counter. The log D was calculated as the average of the logarithmic values (n = 3, six technical replicates) of the ratio between the radioactivity in the octanol and the PBS phase.

[2] = molecular target: T1, HEK-SST2 cells (human SST2 receptor) (Homo sapiens, UniProt P30874); assay: Internalization and cell-surface binding in HEK-SST2 cells; assay type: cell-based; details: 37 °C
T1 construct: expressed in transfected cells; host or cells: HEK293 (HEK-SST2), provided by Prof; Stefan Schulz, Jena University Hospital
T1 sequence (P30874 whole entry): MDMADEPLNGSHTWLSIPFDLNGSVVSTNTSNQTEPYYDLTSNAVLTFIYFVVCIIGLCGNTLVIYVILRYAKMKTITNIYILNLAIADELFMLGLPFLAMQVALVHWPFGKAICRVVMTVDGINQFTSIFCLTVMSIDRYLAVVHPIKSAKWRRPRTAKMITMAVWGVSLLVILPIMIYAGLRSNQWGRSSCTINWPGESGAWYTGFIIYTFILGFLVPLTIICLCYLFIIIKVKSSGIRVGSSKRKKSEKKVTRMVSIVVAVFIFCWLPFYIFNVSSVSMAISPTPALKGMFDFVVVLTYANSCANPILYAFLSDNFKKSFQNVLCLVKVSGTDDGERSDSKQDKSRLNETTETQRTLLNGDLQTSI

[3] = set-up: species or system human
From the text: To account for various possible locations of the tumour, we used two S-values. One was the value for the liver and is representative for the liver lesions. Other was the “average abdominal S-value”, which was the average S-value for the following organs: stomach, liver, gallbladder, spleen, pancreas, small intestine, kidneys, large intestine, and adrenal glands. Estimated dose to various organs, average total body dose and effective dose are summarized in Table 3 for both radiotracers and two typical tumour locations.
Dosimetric calculations were based on the biodistribution of [^99mTc]Tc-TECANT-1 and [^99mTc]Tc-TECANT-2 (Table 3). […] Percent of injected activity per organ in a human model was evaluated according to the animal data extrapolation model:(2) (%IA/organ)human=[(%IA/g)mouse×Mmouse(g)]×(m(g)/M(kg))human
Here m is the organ mass and M is the total body weight of mouse or human. Average total weight of the mouse was measured, while human phantom has the total weight of 73 kg. The %IA/g and %IA/organ is the percentage of the injected activity concentration (i.e., per gram of tissue) and per organ, respectively. For the tumour, we assumed that the percent of injected activity uptake into the tumour is the same for mouse and human.
Subsequently, percentage of the injected activity per organ was folded with the decay curve of ^99mTc and interpolated with the exponential function. The interpolation function was used to estimate initial %ID/organ and the time-integrated activity concentration (TIAC). Absorbed dose per injected activity for various organs was calculated with the TIAC factors and S-values for a standard person from the OpenDose project. Effective dose was evaluated according to the ICRP 103 recommendations.
We also assumed that the remaining activity from the organs and tumour ends up in the bladder.

[4] = in vivo; details: female, mouse, 20 pmol, total radioactivity
[5] = molecular target: T1, HEK-SST2 cells (human SST2 receptor); assay: Dissociation of cell-surface bound radiotracer with or without competitor; assay type: cell-based
[6] = athymic nude-Foxn1^nu/Foxn1^+, Biodistribution Heart
[7] = athymic nude-Foxn1^nu/Foxn1^+, Biodistribution Liver
[8] = athymic nude-Foxn1^nu/Foxn1^+, Biodistribution Lung
[9] = athymic nude-Foxn1^nu/Foxn1^+, Biodistribution Pancreas
[10] = athymic nude-Foxn1^nu/Foxn1^+, Biodistribution Spleen
[11] = athymic nude-Foxn1nu/Foxn1+, Biodistribution Adrenals
[12] = athymic nude-Foxn1nu/Foxn1+, Biodistribution Blood
[13] = athymic nude-Foxn1nu/Foxn1+, Biodistribution Bone
[14] = athymic nude-Foxn1nu/Foxn1+, Biodistribution HEK-SST2 (+) tumour uptake
[15] = athymic nude-Foxn1nu/Foxn1+, Biodistribution Intestine
[16] = athymic nude-Foxn1nu/Foxn1+, Biodistribution Kidneys
[17] = athymic nude-Foxn1nu/Foxn1+, Biodistribution Muscle
[18] = athymic nude-Foxn1nu/Foxn1+, Biodistribution Pituitary
[19] = athymic nude-Foxn1nu/Foxn1+, Biodistribution Stomach

C[C@@H](O)[C@@H]1NC(=O)[C@H](CCCCN)NC(=O)[C@@H](Cc2c[nH]c3ccccc23)NC(=O)[C@H](Cc2ccc(O)cc2)NC(=O)[C@H](NC(=O)[C@H](Cc2ccc(Cl)cc2)NC(=O)C(CNCCN)CNCCN)CSSC[C@@H](C(=O)N[C@H](Cc2ccc(O)cc2)C(N)=O)NC1=O [[^99mTc]Tc-TECANT-2, metal not drawn]
logD [1]: -1.63 ± 0.16 | internalization (internalized fraction) ([2]; 30 min): 4.4 ± 0.5% | internalization (internalized fraction) ([2]; 4 h): 11.7 ± 1.4% | cell surface binding ([2]; 4 h, % of total radioactivity added): 36.9 ± 8.5% | Average total body dose [3]: 3.3 μGy/MBq | Dose Bone [3]: 4.0 μGy/MBq | Dose Muscle [3]: 2.6 μGy/MBq | Dose Red marrow [3]: 3.4 μGy/MBq | Dose Small intestine wall [3]: 1.9 μGy/MBq | biological half-life of clearance of remaining activity (rest of the body) to the bladder [3]: 13.3 h | effective dose [3]: 4.3 mSv | tissue uptake at 1 h [4, 6]: 1.64 ± 0.6 %ID/g | tissue uptake at 4 h [4, 6]: 0.26 ± 0.05 %ID/g | tissue uptake at 24 h [4, 6]: 0.05 ± 0.01 %ID/g | tissue uptake at 1 h [4, 7]: 5.38 ± 1.36 %ID/g | tissue uptake at 4 h [4, 7]: 3.72 ± 0.92 %ID/g | tissue uptake at 24 h [4, 7]: 1.07 ± 0.24 %ID/g | tissue uptake at 1 h [4, 8]: 17 ± 5.75 %ID/g | tissue uptake at 4 h [4, 8]: 2.52 ± 0.53 %ID/g | tissue uptake at 24 h [4, 8]: 0.3 ± 0.05 %ID/g | tissue uptake at 1 h [4, 9]: 16.4 ± 4.53 %ID/g | tissue uptake at 4 h [4, 9]: 1.96 ± 0.58 %ID/g | tissue uptake at 24 h [4, 9]: 0.12 ± 0.05 %ID/g | tissue uptake at 1 h [4, 10]: 1.61 ± 0.46 %ID/g | tissue uptake at 4 h [4, 10]: 0.55 ± 0.15 %ID/g | tissue uptake at 24 h [4, 10]: 0.24 ± 0.06 %ID/g | tissue uptake at 1 h [4, 11]: 5.14 ± 1.79 %ID/g | tissue uptake at 4 h [4, 11]: 1.25 ± 0.33 %ID/g | tissue uptake at 24 h [4, 11]: 0.73 ± 0.2 %ID/g | tissue uptake at 1 h [4, 12]: 1.8 ± 0.44 %ID/g | tissue uptake at 4 h [4, 12]: 0.23 ± 0.05 %ID/g | tissue uptake at 24 h [4, 12]: 0.03 ± 0.01 %ID/g | tissue uptake at 1 h [4, 13]: 1.67 ± 0.94 %ID/g | tissue uptake at 4 h [4, 13]: 0.41 ± 0.14 %ID/g | tissue uptake at 24 h [4, 13]: 0.2 ± 0.19 %ID/g | tissue uptake at 1 h [4, 14]: 19.1 ± 4.47 %ID/g | tissue uptake at 4 h [4, 14]: 28.4 ± 4.84 %ID/g | tissue uptake at 24 h [4, 14]: 11 ± 4.69 %ID/g | tissue uptake at 4 h ([4]; athymic nude-Foxn1nu/Foxn1+, Biodistribution HEK-SST2 (−) tumour uptake): 0.38 ± 0.13 %ID/g | tissue uptake at 1 h [4, 15]: 4.05 ± 1.12 %ID/g | tissue uptake at 4 h [4, 15]: 0.86 ± 0.4 %ID/g | tissue uptake at 24 h [4, 15]: 0.31 ± 0.17 %ID/g | tissue uptake at 1 h [4, 16]: 43.6 ± 11.4 %ID/g | tissue uptake at 4 h [4, 16]: 25.9 ± 5.23 %ID/g | tissue uptake at 24 h [4, 16]: 3.42 ± 1.44 %ID/g | tissue uptake at 1 h [4, 17]: 0.69 ± 0.22 %ID/g | tissue uptake at 4 h [4, 17]: 0.15 ± 0.04 %ID/g | tissue uptake at 24 h [4, 17]: 0.06 ± 0.03 %ID/g | tissue uptake at 1 h [4, 18]: 4.74 ± 1.5 %ID/g | tissue uptake at 4 h [4, 18]: 1.21 ± 0.86 %ID/g | tissue uptake at 24 h [4, 18]: 2.12 ± 1.36 %ID/g | tissue uptake at 1 h [4, 19]: 14.6 ± 4.89 %ID/g | tissue uptake at 4 h [4, 19]: 2.17 ± 0.39 %ID/g | tissue uptake at 24 h [4, 19]: 0.45 ± 0.08 %ID/g | estimated dissociation half-life ([5]; absence of competitor): 40.3 min | total binding remaining (dissociation assay) ([5]; after 4 h, 37 °C, absence of competitor): 27.2 ± 6.3% | estimated dissociation half-life ([5]; presence of competitor): 7.5 min | bound fraction still remaining in the cells ([5]; presence of excess of the competitor, 37 °C): 1.1 ± 0.1%
